Experimental data as given in patent publication US20260216335A1, “COMPOSITIONS AND METHODS FOR TARGETING AND TREATING TUMOR” (JIANGSU CODE BIOMEDICAL TECHNOLOGY CO., LTD., priority 2023, published 2026).

What was measured:
Assay type in all cases: physicochemical
[1] = Photothermal conversion under continuous 808 nm laser irradiation, 1.5 W/cm^2; details: 808 nm NIR laser
Protocol: DdH2O, blank nanoparticles, 0.012 mg/mL free ICG, nanoparticles containing ICG and Fe3O4 (concentration of ICG is 0.012 mg/mL) and nanoparticles containing ICG and oleic acid modified Fe3O4 were continuously irradiated at 1.5 W/cm2 by 808 nm laser emitter. […] Then, PLGA nanoparticles coated with oleic acid modified Fe3O4 and free oleic acid modified Fe3O4 were irradiated continuously. […] But the heat production capacity is low. Then, we used intermittent irradiation method, every 3 minutes to raise the temperature to the highest point, and stopped the irradiation for 7 minutes to bring the temperature back to room temperature until the temperature no longer increased.
To evaluate its photothermal conversion performance, ICG/OA-Fe3O4@PLGA solutions were irradiated with an 808 nm NIR laser (1.5 W/cm^2, FIGS. 3A-3C). […] No significant temperature changes were found in Blank-NP solution and DI water. Only negligible temperature increase of Blank-NP solution and DI water were found.

[2] = Photothermal stability, laser ON 3 min / OFF 7 min cycles; details: NIR laser 3 min ON, 7 min OFF
Protocol: DdH2O, blank nanoparticles, 0.012 mg/mL free ICG, nanoparticles containing ICG and Fe3O4 (concentration of ICG is 0.012 mg/mL) and nanoparticles containing ICG and oleic acid modified Fe3O4 were continuously irradiated at 1.5 W/cm2 by 808 nm laser emitter. […] Then, PLGA nanoparticles coated with oleic acid modified Fe3O4 and free oleic acid modified Fe3O4 were irradiated continuously.
ICG@NPs, free ICG, ICG/OA-Fe3O4@NPs, free ICG/OA-Fe3O4 were irradiated with the NIR laser for 3 min (Laser ON), followed by natural cooling for 7 min (Laser OFF).
Furthermore, to investigate the photothermal conversion stability of ICG/OA-Fe3O4@PLGA for practical applications, solutions of ICG/OA-Fe3O4@PLGA, ICG/Fe3O4@PLGA, ICG@PLGA, Blank-NPs and free ICG were irradiated with the NIR laser for 3 min (Laser ON), followed by natural cooling for 7 min (Laser OFF).

[3] = Photothermal heating under 808 nm NIR laser, 1.0 W/cm^2 for 10 min; details: 1.0 W/cm^2, 10 min, 1 mL aqueous, 12 μg/mL ICG or 11.6 μg/mL Fe
Protocol: To synthesize an effectiveness photothermal agents, we explore the synergistic effect of ICG and OA-Fe3O4. Various photothermal agents were exposed to 808 nm NIR laser irradiation with a power density of 1.0 W/cm^2 for 10 min. Aqueous suspensions of ICG/OA-Fe3O4@NPs, mixture of free ICG and OA-Fe3O4 (1 mL solution with 12 μg/mL ICG or 11.6 μg/mL Fe) reach the maximum temperatures of 45.9° C., 46.6° C.

SMILES: CC1(C)C(/C=C/C=C/C=C/C=C2\N(CCCCS(=O)(=O)O)c3ccc4ccccc4c3C2(C)C)=[N+](CCCCS(=O)(=O)[O-])c2ccc3ccccc3c21 [free ICG, Indocyanine green]
- time high temperature was maintained [1]: only a few minutes
- temperature reached by the solution ([1]; 500 μg mL-1): 47.3 °C
- maxim temperature, laser ON/OFF cycle 1 ([2]; 1st of six cycles): 40.9 °C
- maxim temperature, laser ON/OFF cycle 2 ([2]; 2nd of six cycles): 37.1 °C
- maxim temperature, laser ON/OFF cycle 3 ([2]; 3rd of six cycles): 33.8 °C
- maxim temperature, laser ON/OFF cycle 4 ([2]; 4th of six cycles): 32.8 °C
- maxim temperature, laser ON/OFF cycle 5 ([2]; 5th of six cycles): 30.7 °C
- maxim temperature, laser ON/OFF cycle 6 ([2]; 6th of six cycles): 30.1 °C
- maximum temperature [3]: 41.8 °C
